Values quoted from earlier work in Sander's compilation of Henry's law constants (doi:10.1063/1.555654).

Test: Henry solubility constant Hcp at 298.15 K (mol/(m3 Pa))
Settings: reference: Mackay and Shiu (1981); cited value

SMILES	Henry solubility constant Hcp
ClC1=C(Cl)[C@]2(Cl)[C@H]3[C@H]([C@@H]4C=C[C@H]3C4)[C@@]1(Cl)C2(Cl)Cl [aldrin]	0.36
C=CCCCCCC [1-octene]	1e-05
BrC(Br)Br [tribromomethane]	0.016
CCC(C)CC [3-methylpentane]	5.8e-06
CC(C)(C)C [dimethylpropane]	2.7e-06
COP(=S)(OC)Oc1ccc([N+](=O)[O-])cc1 [methylparathion]	50
c1cc2c3c(cccc3c1)CC2 [acenaphthene]	0.042
Cc1cc(C)cc(C)c1 [1,3,5-trimethylbenzene]	0.0017
Cc1cccc(C)c1 [1,3-dimethylbenzene]	0.0014
Clc1ccc(C(c2ccc(Cl)cc2)C(Cl)(Cl)Cl)cc1 [1,1,1-trichloro-2,2-bis-(4-chlorophenyl)-ethane]	0.19
CCCC(C)CC (stereo unspecified) [3-methylhexane]	4.2e-06
CC(C)C(C)C(C)C [2,3,4-trimethylpentane]	5.3e-06
Fc1ccccc1 [fluorobenzene]	0.0016
Cc1cccc2ccccc12 [1-methylnaphthalene]	0.022
CC(C)Cc1ccccc1 [(2-methylpropyl)-benzene]	0.0003
CCC(C)C(C)C (stereo unspecified) [2,3-dimethylpentane]	5.7e-06
Cc1cccc(C)c1C [1,2,3-trimethylbenzene]	0.0031
ClC(Cl)=C(Cl)Cl [tetrachloroethene]	0.00043
CC(C)CCC(C)(C)C [2,2,5-trimethylhexane]	2.9e-06
CC(C)C(C)C [2,3-dimethylbutane]	7.7e-06
C=CC=C [1,3-butadiene]	0.00013
CCCCCC [hexane]	5.9e-06
Cc1ccccc1C [1,2-dimethylbenzene]	0.002
CCCCC(C)CC (stereo unspecified) [3-methylheptane]	2.7e-06
C/C=C/CCCC [trans-2-heptene]	2.4e-05
c1ccc(-c2ccccc2)cc1 [biphenyl]	0.036
Clc1ccc(Cl)cc1 [1,4-dichlorobenzene]	0.0063

SMILES	Henry solubility constant Hcp
c1ccc2c(c1)ccc1ccccc12 [phenanthrene]	0.25
C=C [ethene]	4.6e-05
ClCC(Cl)(Cl)Cl [1,1,1,2-tetrachloroethane]	0.0036
C=C(Cl)CCl [2,3-dichloropropene]	0.0028
c1ccc2c(c1)-c1cccc3cccc-2c13 [benzo[jk]fluorene]	0.0045
ClC1C(Cl)C(Cl)C(Cl)C(Cl)C1Cl (stereo unspecified) [γ-1,2,3,4,5,6-hexachlorocyclohexane]	3.1
Brc1ccccc1 [bromobenzene]	0.0048
CC(Cl)(Cl)Cl [1,1,1-trichloroethane]	0.00036
C=CC(=C)C [2-methyl-1,3-butadiene]	0.00013
Cl/C=C\CCl [cis-1,3-dichloropropene]	0.0042
ClC1=C(Cl)[C@]2(Cl)[C@@H]3[C@@H]4C[C@@H]([C@H]5O[C@@H]45)[C@@H]3[C@@]1(Cl)C2(Cl)Cl [dieldrin]	0.91
ClC(Cl)(Cl)Cl [tetrachloromethane]	0.0005
Cc1ccccc1 [methylbenzene]	0.0015
CCCCc1ccccc1 [butylbenzene]	0.00077
CCc1ccc2ccccc2c1 [2-ethylnaphthalene]	0.012
Clc1ccccc1 [chlorobenzene]	0.0029
COP(=S)(Oc1cc(Cl)c(Br)cc1Cl)c1ccccc1 (stereo unspecified) [leptophos]	3.7
Cl/C=C/CCl [trans-1,3-dichloropropene]	0.0056
CCc1cccc2ccccc12 [1-ethylnaphthalene]	0.026
ClCC(Cl)Cl [1,1,2-trichloroethane]	0.0083
ClC(Cl)C(Cl)(Cl)Cl [pentachloroethane]	0.0045
ClC(Cl)C(Cl)Cl [1,1,2,2-tetrachloroethane]	0.021
Clc1cccc(Cl)c1 [1,3-dichlorobenzene]	0.0028
Cc1ccc(C)cc1 [1,4-dimethylbenzene]	0.0014
BrCBr [dibromomethane]	0.031
C=CCCl [3-chloro-1-propene]	0.00091

Results, then the compound that gave them:

Henry solubility constant Hcp	SMILES
1.6e-05	C=CCC(C)C [4-methyl-1-pentene]
5.4e-05	C1CCCC1 [cyclopentane]
2.7e-05	CC1CCCC1 [methylcyclopentane]
5.6e-05	C1CCCCC1 [cyclohexane]
6.3e-06	CC1CCC(C)(C)C1 (stereo unspecified) [1,1,3-trimethylcyclopentane]
3e-06	CC(C)CC(C)(C)C [2,2,4-trimethylpentane]
0.0018	c1ccccc1 [benzene]
3.6e-05	C=C(C)CCC [2-methyl-1-pentene]
1.4e-06	CCCCCCCCCC [decane]
0.00083	CC(C)(C)c1ccccc1 [(1,1-dimethylethyl)-benzene]
2.9e-06	CCCCC(C)C [2-methylhexane]
0.0038	ClCCl [dichloromethane]
3.3e-06	CC(C)CC(C)C [2,4-dimethylpentane]
2.5e-05	C=CCCC [1-pentene]
7.2e-06	CCC(C)C [2-methylbutane]
1e-06	CCCCC(C)CCC (stereo unspecified) [4-methyloctane]
0.002	CCc1ccc(C)cc1 [1-ethyl-4-methylbenzene]
1e-05	CCCC [butane]
0.17	c1ccc2cc3ccccc3cc2c1 [anthracene]
3.1e-06	CCCC(C)(C)C [2,2-dimethylpentane]
2.5e-05	CC1CCCCC1 [methylcyclohexane]
0.0017	Cc1ccc(C)c(C)c1 [1,2,4-trimethylbenzene]
5.9e-06	CCCC(C)C [2-methylpentane]
1.1e-05	C[C@H]1CC[C@H](C)CC1 [trans-1,4-dimethylcyclohexane]

Henry solubility constant Hcp	SMILES
0.0009	C#CC [propyne]
4.3e-06	CCCCCCC [heptane]
0.0077	Ic1ccccc1 [iodobenzene]
0.0013	Cc1ccc(C(C)C)cc1 [1-methyl-4-(1-methylethyl)-benzene]
8e-06	CCCCC [pentane]
5.4e-06	CCCCCC1CCCC1 [pentylcyclopentane]
0.0013	CCc1ccccc1 [ethylbenzene]
0.00071	CCC(C)c1ccccc1 (stereo unspecified) [(1-methylpropyl)-benzene]
1.8e-05	C=CC(C)C [3-methyl-1-butene]
0.005	CCCl [chloroethane]
0.0014	CCCc1ccccc1 [propylbenzene]
5.4e-06	CCC(C)(C)CC [3,3-dimethylpentane]
0.00052	C#CCC [1-butyne]
0.0017	CCCCCc1ccccc1 [pentylbenzene]
3.3e-06	CCCCCCCC [octane]
5.8e-06	CCC(C)(C)C [2,2-dimethylbutane]
2.8e-05	C[C@@H]1CCCC[C@@H]1C [cis-1,2-dimethylcyclohexane]
0.023	c1ccc2ccccc2c1 [naphthalene]
0.12	c1ccc2c(c1)Cc1ccccc1-2 [2,3-benzindene]
4.7e-05	C=CC [propene]
8.3e-06	CC(C)C [2-methylpropane]
0.0083	CC(C)CCl [1-chloro-2-methylpropane]
1.3e-06	CCCCCCCCCCCC [dodecane]
2e-06	CCCCCCCCC [nonane]
